Source: publication PMC12375786, “Revolutionizing cancer treatment with Halomonas Aquamarina L-Glutaminase: insights from in vitro and computational studies” (Scientific Reports, 2025)

System: T1, L-GLS (L-glutaminase) of Halomonas aquamarina HBIM1
T1 construct: gene glsA
Details: unit printed as mM^-1 (reciprocal, probably mM meant); pH and temperature of the kinetic run not given

Question: How did the Km turn out when `NC(=O)CC[C@H](N)C(=O)O` [L-glutamine] was run?
Answer: 0.198 mM⁻¹
